Data reported in patent US6268391A, “Benzylidene-1,3-dihydro-indol-2-one derivatives a receptor tyrosine kinase inhibitors, particularly of Raf kinases” (Glaxo Wellcome Inc., priority 1997, dated 2001).

The compounds below were run against T1, Human cRaf1 (Homo sapiens, UniProt P04049) (assay: Raf kinase assay (cRaf1 assay / Raf/MEK cascade assay)). Conditions: not given.
T1 construct: poly-histidine (C); made in house
T1 sequence (P04049 whole entry): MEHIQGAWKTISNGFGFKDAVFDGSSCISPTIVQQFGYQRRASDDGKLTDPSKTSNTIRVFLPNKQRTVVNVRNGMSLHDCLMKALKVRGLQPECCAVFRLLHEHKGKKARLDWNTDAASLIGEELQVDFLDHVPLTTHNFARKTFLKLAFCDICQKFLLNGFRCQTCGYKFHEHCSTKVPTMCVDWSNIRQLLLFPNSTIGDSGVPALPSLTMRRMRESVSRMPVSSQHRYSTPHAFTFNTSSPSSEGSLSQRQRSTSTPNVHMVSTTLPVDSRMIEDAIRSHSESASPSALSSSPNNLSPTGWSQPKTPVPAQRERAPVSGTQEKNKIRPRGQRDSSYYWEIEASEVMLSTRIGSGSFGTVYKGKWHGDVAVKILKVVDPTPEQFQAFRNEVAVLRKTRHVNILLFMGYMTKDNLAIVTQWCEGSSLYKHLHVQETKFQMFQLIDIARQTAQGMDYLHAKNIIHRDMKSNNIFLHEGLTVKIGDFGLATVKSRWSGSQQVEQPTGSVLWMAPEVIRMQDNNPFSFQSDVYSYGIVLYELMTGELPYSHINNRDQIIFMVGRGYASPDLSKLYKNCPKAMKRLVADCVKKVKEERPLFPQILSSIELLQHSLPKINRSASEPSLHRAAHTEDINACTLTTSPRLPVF
Type: biochemical
`CN1CCN(C(=O)Oc2c(Br)cc(C=C3C(=O)Nc4ccc(I)cc43)cc2Br)CC1` [Example 153, 2,6-Dibromo-4-[(5-iodo-2-oxo-1,2-dihydro-3H-indol-3-ylidene)methyl]phenyl 4-methyltetrahydro-1(2H)-pyrazinecarboxylate] was tested, and the IC50 was 10 to 100 µM.

Same assay, conditions: Table 3; read-out: Raf Kinase activity
Work on `O=C1Nc2cc(Br)ccc2C1=Cc1cc(Br)c(O)c(Br)c1` [Example 123, 6-Bromo-3-(3,5-dibromo-4-hydroxy-benzylidene)-1,3-dihydro-indol-2-one] yielded an IC50 of under 1 µM.
`O=C1Nc2ccc(-c3csc(-c4ccccc4)n3)cc2C1=Cc1cc(Cl)c(O)c(Cl)c1` [Example 124, 3-(3,5-Dichloro-4-hydroxy-benzylidene)-5-(2-phenyl-thiazol-4-yl)-1,3-dihydro-indol-2-one] showed an IC50 of under 1 µM.
`O=C1Nc2ccc(-c3csc(-c4ccccc4)n3)cc2C1=Cc1cc(Br)c(O)c(Br)c1` [Example 125, 3-(3,5-Dibromo-4-hydroxy-benzylidene)-5-(2-phenyl-thiazol-4-yl)-1,3-dihydro-indol-2-one] gave an IC50 of under 1 µM.
For `O=C1Nc2ccc(-c3csc(Nc4ccccc4)n3)cc2C1=Cc1cc(Br)c(O)c(Br)c1` [Example 126, 3-(3,5-Dibromo-4-hydroxy-benzylidene)-5-(2-phenylamino-thiazol-4-yl)-1,3-dihydro-indol-2-one], the IC50 was under 1 µM.
`O=C1Nc2ccc(-c3csc(Nc4ccccc4)n3)cc2C1=Cc1cc(Cl)c(O)c(Cl)c1` [Example 127, 3-(3,5-Dichloro-4-hydroxy-benzylidene)-5-(2-phenylamino-thiazol-4-yl)-1,3-dihydro-indol-2-one] showed an IC50 of under 1 µM.
For `O=C1Nc2ccc(C3=NNC(=S)NC3)cc2C1=Cc1cc(Cl)c(O)c(Cl)c1` [Example 128, 3-(3,5-Dichloro-4-hydroxy-benzylidene)-5-(3-thioxo-2,3,4,5-tetrahydro-[1,2,4]-triazine-6-yl)-1,3-dihydro-indol-2-one], the IC50 was under 1 µM.
Work on `O=C1Nc2ccc(C3=NNC(=S)NC3)cc2C1=Cc1cc(Br)c(O)c(Br)c1` [Example 129, 3-(3,5-Dibromo-4-hydroxy-benzylidene)-5-(3-thioxo-2,3,4,5-tetrahydro-[1,2,4]-triazine-6-yl)-1,3-dihydro-indol-2-one] yielded an IC50 of under 1 µM.
Work on `O=C1Nc2ccc3[nH]nnc3c2C1=Cc1cc(Br)c(O)c(Br)c1` [Example 132, 8-(3,5-Dibromo-4-hydroxy-benzylidene)-6,8-dihydro-3H-1,2,3,6-tetraaza-as-indacen-7-one] yielded an IC50 of under 1 µM.
`Nc1nc(-c2ccc3c(c2)C(=Cc2cc(Cl)c(O)c(Cl)c2)C(=O)N3)cs1` [Example 134, 5-(2-Amino-thiazol-4-yl)-3-(3,5-dichloro-4-hydroxy-benzylidene)-1,3-dihydro-indol-2-one] showed an IC50 of under 1 µM.
`Nc1nc2ccc3c(c2s1)C(=Cc1cc(Br)c(O)c(Br)c1)C(=O)N3` [Example 135, 2-Amino-8-(3,5-dibromo-4-hydroxy-benzylidene)-6,8-dihydro-1-thia-3,6-diaza-as-indacen-7-one] gave an IC50 of under 1 µM.
Work on `CC(=O)Nc1nc(-c2ccc3c(c2)C(=Cc2cc(Br)c(O)c(Br)c2)C(=O)N3)cs1` [Example 136, 5-(N-Acetyl-2-amino-thiazol-4-yl)-3-(3,5-dibromo-4-hydroxy-benzylidene)-1,3-dihydro-indol-2-one] yielded an IC50 of under 1 µM.
Work on `NC(=O)c1ccc2c(c1)C(=Cc1cc(Br)c(O)c(Br)c1)C(=O)N2` [Example 137, 3-(3,5-Dibromo-4-hydroxy-benzylidene)-2-oxo-2,3-dihydro-1H-indol-5-carboxylic acid amide] yielded an IC50 of under 1 µM.
`O=C1Nc2ccc(-c3cccnc3)cc2C1=Cc1cc(Br)c(O)c(Br)c1` [Example 138, 3-(3,5-Dibromo-4-hydroxy-benzylidene)-5-pyrid-3-yl-1,3-dihydro-indol-2-one] showed an IC50 of under 1 µM.
`O=C1Nc2ccc(-c3ccsc3)cc2C1=Cc1cc(Br)c(O)c(Br)c1` [Example 139, 3-(3,5-Dibromo-4-hydroxy-benzylidene)-5-thiophen-3-yl-1,3-dihydro-indol-2-one] showed an IC50 of under 1 µM.
For `CNc1nc(-c2ccc3c(c2)C(=Cc2cc(Br)c(O)c(Br)c2)C(=O)N3)cs1` [Example 140], the IC50 was under 1 µM.
In the case of `CNc1nc(-c2ccc3c(c2)C(=Cc2cc(Cl)c(O)c(Cl)c2)C(=O)N3)cs1` [Example 141], the IC50 is reported as under 1 µM.
In the case of `O=C1Nc2ccc(-c3nnn[nH]3)cc2C1=Cc1cc(Br)c(O)c(Br)c1` [Example 142, 3-(3,5-Dibromo-4-hydroxy-benzylidene)-5-(1H-tetrazol-5-yl)-1,3-dihydro-indol-2-one], the IC50 is reported as under 1 µM.
Compound `Cc1nc(-c2ccc3c(c2)C(=Cc2cc(Br)c(OC(=O)N(CCO)CCO)c(Br)c2)C(=O)N3)cs1` [Example 144, N[bis(2-Hydroxyethyl)]-carbamic acid 2,6 dibromo-4-[5-(2-methyl-thiazol-4-yl)-2-oxo-1,2-dihydro-indol-3-ylidenemethyl]-phenyl ester] has an IC50 of 10 to 100 µM.
`Cc1nnc(-c2ccc3c(c2)C(=Cc2cc(Br)c(O)c(Br)c2)C(=O)N3)o1` [Example 145, 3-(3,5-Dibromo-4-hydroxy-benzylidene)-5-(5-methyl-[1,3,4]oxadiazol-2-yl)-1,3-dihydro-indol-2-one] gave an IC50 of under 1 µM.
`O=C(OCc1ccccc1)Oc1c(Br)cc(C=C2C(=O)Nc3ccc(Cl)cc32)cc1Br` [Example 146, Benzyl 2,6-dibromo-4-[(5-chloro-2-oxo-1,2-dihydro-3H-indol-3-ylidene)methyl]phenyl carbonate] gave an IC50 of 10 to 100 µM.
For `CCOC(=O)Oc1c(Br)cc(C=C2C(=O)Nc3ccc(Cl)cc32)cc1Br` [Example 147, 2,6-Dibromo-4-[(5-chloro-2-oxo-1,2-dihydro-3H-indol-3-ylidene)methyl]phenyl ethyl carbonate], the IC50 was 10 to 100 µM.
`CC(C)COC(=O)Oc1c(Br)cc(C=C2C(=O)Nc3ccc(Cl)cc32)cc1Br` [Example 148, 2,6-Dibromo-4-[(5-chloro-2-oxo-1,2-dihydro-3H-indol-3-ylidene)methyl]phenyl isobutyl carbonate] was tested, and the IC50 was 10 to 100 µM.
For `O=C(OCc1cccnc1)Oc1c(Br)cc(C=C2C(=O)Nc3ccc(Cl)cc32)cc1Br` [Example 149, 2,6-Dibromo-4-[(5-chloro-2-oxo-1,2-dihydro-3H-indol-3-ylidene)methyl]phenyl 3-pyridinylmethyl carbonate], the IC50 was 10 to 100 µM.
`CC(C)(C)C(=O)OCOc1c(Br)cc(C=C2C(=O)Nc3ccc(Cl)cc32)cc1Br` [Example 150, 2,6-Dibromo-4-[(5-chloro-2-oxo-1,2-dihydro-3H-indol-3-ylidene)methyl]phenoxymethyl pivalate] was tested, and the IC50 was 10 to 100 µM.
In the case of `O=C1Nc2ccc(I)cc2C1=Cc1cc(Br)c(OC(=O)N2CCOCC2)c(Br)c1` [Example 151, 2,6-Dibromo-4-[(5-iodo-2-oxo-1,2-dihydro-3H-indol-3-ylidene)methyl]phenyl 4-morpholinecarboxylate], the IC50 is reported as 10 to 100 µM.
With `O=C(NCCOCCO)Oc1c(Br)cc(C=C2C(=O)Nc3ccc(I)cc32)cc1Br` [Example 152, 2,6-Dibromo-4-[(5-iodo-2-oxo-1,2-dihydro-3H-indol-3-ylidene)methyl]phenyl N-[2-(2-hydroxyethoxy)ethyl]carbamate] the IC50 was under 1 µM.
Compound `CCN(CC)C(=O)Oc1c(Br)cc(C=C2C(=O)Nc3ccc(I)cc32)cc1Br` [Example 154, 2,6-Dibromo-4-[(5-iodo-2-oxo-1,2-dihydro-3H-indol-3-ylidene)methyl]phenyl N,N-diethylcarbamate] has an IC50 of 10 to 100 µM.
In the case of `O=C1Nc2ccc(C(=O)O)cc2C1=Cc1cc(Br)c(O)c(Br)c1` [Example 156, 3-(3,5-Dibromo-4-hydroxy-benzylidene)-2-oxo-2,3-dihydro-1H-indol-5-carboxylic acid], the IC50 is reported as under 1 µM.
`O=C1Nc2ccc(S(=O)(=O)N(CCO)CCO)cc2C1=Cc1cc(Br)c(O)c(Br)c1` [Example 157, 3-[(3,5-Dibromo-4-hydroxyphenyl)methylidene]-N,N-bis(2-hydroxyethyl)-2-oxo-5-indolinesulfonamide] gave an IC50 of under 1 µM.
Work on `O=C1Nc2ccc(NC(=O)c3ccccc3)cc2C1=Cc1cc(Br)c(O)c(Br)c1` [Example 158, N-3-[(3,5-Dibromo-4-hydroxyphenyl)methylidene]-2-oxo-2,3-dihydro-1H-indol-5-ylbenzamide] yielded an IC50 of under 1 µM.
`CC(=O)Nc1ccc2c(c1)C(=Cc1cc(Br)c(O)c(Br)c1)C(=O)N2` [Example 159] gave an IC50 of under 1 µM.
With `O=C(CO)Nc1ccc2c(c1)C(=Cc1cc(Br)c(O)c(Br)c1)C(=O)N2` [Example 160, N-3-[(3,5-Dibromo-4-hydroxyphenyl)methylidene]-2-oxo-2,3-dihydro-1H-indol-5-yl-2-hydroxyacetamide] the IC50 was under 1 µM.
Compound `O=C1Nc2ccc(C(=O)NCCCc3ccccc3)cc2C1=Cc1cc(Br)c(O)c(Br)c1` [Example 161, 3-[(3,5-Dibromo-4-hydroxyphenyl)methylidene]-2-oxo-N-(3-phenylpropyl)-5-indolinecarboxamide] has an IC50 of under 1 µM.
`O=C1Nc2ccc(C(=O)NCc3ccccc3)cc2C1=Cc1cc(Br)c(O)c(Br)c1` [Example 162, N-Benzyl-3-[(3,5-dibromo-4-hydroxyphenyl)methylidene]-2-oxo-5-indolinecarboxamide] was tested, and the IC50 was under 1 µM.
`CN(C)c1ccc2c(c1)C(=Cc1cc(Br)c(O)c(Br)c1)C(=O)N2` [Example 163, 3-[(3,5-Dibromo-4-hydroxyphenyl)methylidene]-5-(dimethylamino)-1,3-dihydro-2H-indol-2-one] gave an IC50 of under 1 µM.
For `CCN(CC)C(=O)Oc1c(Br)cc(C=C2C(=O)Nc3ccc(S(N)(=O)=O)cc32)cc1Br` [Example 164, 4-[5-(Aminosulfonyl)-2-oxo-1,2-dihydro-3H-indol-3-ylidene]methyl-2,6-dibromophenyl N,N-diethylcarbamate], the IC50 was 1 to 10 µM.
In the case of `Cc1ccc2c3c(ccc2n1)NC(=O)C3=Cc1cc(Br)c(O)c(Br)c1` [Example 165, 1-[(3,5-Dibromo-4-hydroxyphenyl)methylidene]-7-methyl-1,3-dihydro-2H-pyrrolo[3,2-f]quinolin-2-one], the IC50 is reported as under 1 µM.
With `Nc1ccc2c(c1)C(=Cc1cc(Br)c(O)c(Br)c1)C(=O)N2` [Example 166, 5-Amino-3-[(3,5-dibromo-4-hydroxyphenyl)methylidene]-1,3-dihydro-2H-indol-2-one] the IC50 was under 1 µM.
Work on `CCN(CC)C(=O)Oc1c(Br)cc(C=C2C(=O)Nc3ccc(C(=O)c4ccccc4)cc32)cc1Br` [Example 167, 4-[(5-Benzoyl-2-oxo-1,2-dihydro-3H-indol-3-yildene)methyl]-2,6-dibromophenyl N,N-diethylcarbamate] yielded an IC50 of 10 to 100 µM.
